Data published in patent US9278940B2, “Cyclic amines as bromodomain inhibitors” (Zenith Epigenetics Corp., priority 2012, dated 2016).
Counter-ions that a name gives are not always drawn.

Assays:
Brd4 bromodomain 1 = target: T1, Brd4 bromodomain 1 (Homo sapiens, UniProt O60885); assay: Inhibition of tetra-acetylated histone H4 binding to BET bromodomain (TR-FRET); parameters: key: Active: Compounds with an IC50 value less than 30 μM were deemed to be active.; Not Active: Compounds with an IC50 value less than 30 μM were deemed to be active; details: Brd4 bromodomain 1, tetra-acetylated histone H4 peptide
T1 construct: made in house; host or cells: E. coli BL21(DE3)
Procedure: Proteins were cloned and overexpressed with a N-terminal 6×His tag, then purified by nickel affinity followed by size exclusion chromatography. Briefly, E. coli BL21(DE3) cells were transformed with a recombinant expression vector encoding N-terminally Nickel affinity tagged bromodomains from Brd2, Brd3, Brd4. Cell cultures were incubated at 37° C. with shaking to the appropriate density and induced overnight with IPTG. The supernatant of lysed cells was loaded onto Ni-IDA column for purification. Eluted protein is pooled, concentrated and further purified by size exclusion chromatography. Fractions representing monomeric protein were pooled, concentrated, aliquoted, and frozen at −80° C. for use in subsequent experiments.
Binding of tetra-acetylated histone H4 and BET bromodomains was confirmed by a Time Resolved Fluorescence Resonance Energy Transfer (TR-FRET) method. N-terminally His-tagged bromodomains (200 nM) and biotinylated tetra-acetylated histone H4 peptide (25-50 nM, Millipore) were incubated in the presence of Europium Cryptate-labeled streptavidin (Cisbio Cat. #610SAKLB) and XL665-labeled monoclonal anti-His antibody (Cisbio Cat. #61HISXLB) in a white 96 well microtiter plate (Greiner). For inhibition assays, serially diluted test compound was added to these reactions in a 0.2% final concentration of DMSO. Final buffer concentrations were 30 mM HEPES pH 7.4, 30 mM NaCl, 0.3 mM CHAPS, 20 mM phosphate pH 7.0, 320 mM KF, 0.08% BSA). After 2 hours incubation at room temperature, the fluorescence by FRET was measured at 665 and 620 nm by a SynergyH4 plate reader (Biotek). The binding inhibitory activity was shown by a decrease in 665 nm fluorescence relative to 620 nm. IC50 values were determined from a dose response curve.

c-myc = assay: Inhibition of c-myc expression (mRNA, real-time PCR) in MV4-11 cells; format: cell-based; parameters: key: Active: Compounds with an IC50 value less than 30 μM were deemed to be active.; Not Active: Compounds with an IC50 value less than 30 μM were deemed to be active; details: Human AML MV4-11 cells, 3 hours
Procedure: MV4-11 cells (2.5×10^4 cells) were plated in 96 well U-bottom plates with test compound or DMSO (0.1%), and incubated for 3 hours at 37° C. Cells were then harvested by centrifugation, lysed, and mRNA was isolated using the mRNA catcher plus kit (Invitrogen). Reverse transcription of the mRNA and duplex amplification of the c-myc and cyclophilin cDNAs was performed using the RNA Ultrasense kit (Invitrogen) and a ViiA7 real-time PCR machine (Applied Biosystems). IC50 values were determined from a dose response curve.

Human AML MV-4-11 cells = assay: Inhibition of cell proliferation in MV4-11 cells; format: cell-based; parameters: key: Active: Compounds with an IC50 value less than 30 μM are deemed to be active.; Not Active: Compounds with an IC50 value less than 30 μM are deemed to be active; details: 72 hours
Procedure: MV4-11 cells: 96-well plates were seeded with 5×10^4 cells per well of exponentially growing human AML MV-4-11 (CRL-9591) cells and immediately treated with two-fold dilutions of test compounds, ranging from 30 μM to 0.2 μM. Triplicate wells were used for each concentration, as well as a media only and three DMSO control wells. The cells and compounds were incubated at 37° C., 5% CO2 for 72 hours before adding 20 μL of the CellTiter Aqueous One Solution (Promega) to each well and incubating at 37° C., 5% CO2 for an additional 3-4 hours. The absorbance was taken at 490 nm in a spectrophotometer and the percentage of proliferation relative to DMSO-treated cells was calculated after correction from the blank well. IC50 were calculated using the GraphPad Prism software.

hIL-6 mRNA = assay: Inhibition of hIL-6 mRNA transcription in LPS-stimulated U937 macrophages; format: cell-based, human; parameters: key: Active: Compounds with an IC50 value less than 30 μM are deemed to be active.; Not Active: Compounds with an IC50 value less than 30 μM are deemed to be active; details: U937 cells differentiated with PMA, 1 h pretreatment, LPS 3 h
Procedure: In this example, hIL-6 mRNA in tissue culture cells was quantitated to measure the transcriptional inhibition of hIL-6 when treated with a compound of the present disclosure.
A human leukemic monocyte lymphoma cell line (U937) was plated (3.2×10^4 cells per well) in a 96-well plate in […] RPMI-1640 containing 10% FBS and penicillin/streptomycin, and differentiated into macrophages for 3 days in 60 ng/mL PMA ([…]) at 37° C. in 5% CO2 prior to the addition of the compound of interest. The cells were pretreated for 1 h with the test compound prior to stimulation with 1 ug/mL lipopolysaccharide from Escherichia coli. The cells were incubated at 37-C for 3 h before the cells were harvested. At time of harvest, the spent media was removed from the cells and the cells were rinsed in 200 μL PBS. Cell lysis solution (70 μL) was added the cells in each well and incubated for 5-10 min at room temperature, to allow for complete cell lysis and detachment. mRNA was then prepared using the “mRNA Catcher PLUS plate” (Invitrogen), according to the protocol supplied. After the last wash, as much wash buffer as possible was aspirated without allowing the wells to dry. Elution buffer (E3, 70 μL) was then added to each well. mRNA was then eluted by incubating the mRNA Catcher PLUS plate with Elution Buffer for 5 min at 68° C. and then immediately placing the plate on ice.
The eluted mRNA isolated was then used in a one-step quantitative real-time PCR reaction, using components of the Ultra Sense Kit together with Applied Biosystems primer-probe mixes. Real-time PCR data was analyzed, normalizing the Ct values for hIL-6 to an internal control, prior to determining the fold induction of each unknown sample, relative to the control.

hApoA-1 mRNA = assay: Up-regulation of hApoA-1 mRNA transcription in Huh7 cells; format: cell-based, human; parameters: key: Active: Compounds with an EC170 value less than 30 μM are deemed to be active.; Not Active: Compounds with an EC170 value less than 30 μM are deemed to be active; details: 48 hrs treatment, ApoA-I mRNA
Procedure: In this example, ApoA-I mRNA in tissue culture cells was quantitated to measure the transcriptional up-regulation of ApoA-I when treated with a compound of the present disclosure.
Huh7 cells ([…] per well) were plated in a 96-well plate using 100 μL DMEM per well, (Gibco DMEM supplemented with penicillin/streptomycin and 10% FBS), 24 h before the addition of the compound of interest. After 48 hrs treatment, the spent media was removed from the Huh-7 cells and placed on ice (for immediate use) or at −80° C. (for future use) with the “LDH cytotoxicity assay Kit II” from Abcam. The cells remaining in the plate were rinsed with 100 μL PBS.
Then 85 μL of cell lysis solution was added to each well and incubated for 5-10 minutes at room temperature, to allow for complete cell lysis and detachment. mRNA was then prepared using the “mRNA Catcher PLUS plate” from Life Technologies, according to the protocol supplied. After the last wash, as much wash buffer as possible was aspirated without allowing the wells to dry. Elution Buffer (E3, 80 μL) was then added to each well. mRNA was then eluted by incubating the mRNA Catcher PLUS plate with Elution Buffer for 5 minutes at 68° C., and then 1 minute at 4° C. Catcher plates with mRNA eluted were kept on ice for use or stored at −80° C.
The eluted mRNA isolated was then used in a one-step real-time PCR reaction, using components of the Ultra Sense Kit together with Life Technologies primer-probe mixes. Real-time PCR data was analyzed, using the Ct values, to determine the fold induction of each unknown sample, relative to the control (that is, relative to the control for each independent DMSO concentration).
Compounds with an EC170 value less than 30 μM are deemed to be active.

Structure (SMILES)	FRET activity (IC50 < 30 μM) (Brd4 bromodomain 1)	c-myc activity (IC50 < 30 μM) (c-myc)	cell proliferation activity (IC50 < 30 μM) (Human AML MV-4-11 cells)	IL-6 activity (IC50 < 30 μM) (hIL-6 mRNA)	ApoA-1 activity (EC170 < 30 μM) (hApoA-1 mRNA)	melting point
COc1cc(OC)c2c(=O)[nH]c(-c3cccc(N4CCN(C(C)C(N)=O)CC4)n3)nc2c1 (centres unmarked) [Example 9, 2-(4-(6-(5,7-Dimethoxy-4-oxo-3,4-dihydroquinazolin-2-yl)pyridin-2-yl)piperazin-1-yl)propanamide]	Active	Not Active	Active	Not Active	Active	149 to 150 °C
COc1cc(OC)c2c(=O)[nH]c(-c3ccc(OCCNC(C)C)c(N4CCN(C(C)C)CC4)n3)nc2c1 (as salt: trifluoroacetate) [Example 12, 2-(5-(2-(Isopropylamino)ethoxy)-6-(4-isopropylpiperazin-1-yl)pyridin-2-yl)-5,7-dimethoxyquinazolin-4(3H)-one bis(trifluoroacetate)]						186 to 188 °C
COc1cc(OC)c2c(=O)[nH]c(-c3cccc(N4CCN(CCC(=O)O)CC4)n3)nc2c1 [Example 11, 3-(4-(6-(5,7-Dimethoxy-4-oxo-3,4-dihydroquinazolin-2-yl)pyridin-2-yl)piperazin-1-yl)propanoic acid]	Active			Not Active	Not Active	241 °C (dec.)
COC(=O)CN1CCN(c2cccc(-c3nc4cc(OC)cc(OC)c4c(=O)[nH]3)n2)CC1 [Example 7, Methyl 2-(4-(6-(5,7-dimethoxy-4-oxo-3,4-dihydroquinazolin-2-yl)pyridin-2-yl)piperazin-1-yl)acetate]	Active			Active		176 to 177 °C
COc1cc(OC)c2c(=O)[nH]c(-c3ccc(OC)c(N4CCN(C(C)C)CC4)n3)nc2c1 [Example 14, 2-(6-(4-Isopropylpiperazin-1-yl)-5-methoxypyridin-2-yl)-5,7-dimethoxyquinazolin-4(3H)-one]	Active	Active	Active	Not Active	Active	208 to 210 °C
COc1cc(OC)c2c(=O)[nH]c(-c3cccc(N4CCN(CCO)CC4)n3)nc2c1 [Example 4, 2-(6-(4-(2-Hydroxyethyl)piperazin-1-yl)pyridin-2-yl)-5,7-dimethoxyquinazolin-4(3H)-one]	Active	Active	Active	Active	Active	175 to 177 °C
COc1cc(-c2nc3cc(OC)cc(OC)c3c(=O)[nH]2)cc(N2CCN(C(C)C)CC2)c1 [Example 2, 2-(3-(4-Isopropylpiperazin-1-yl)-5-methoxyphenyl)-5,7-dimethoxyquinazolin-4(3H)-one]	Active	Active	Active	Active	Active	212 to 213 °C
COCCN1CCN(c2cccc(-c3nc4cc(OC)cc(OC)c4c(=O)[nH]3)n2)CC1 [Example 3, 5,7-Dimethoxy-2-(6-(4-(2-methoxyethyl)piperazin-1yl)pyridin-2-yl)quinazolin-4(3H)-one]	Active	Active	Active	Active	Active	99 to 101 °C
COc1cc(OC)c2c(=O)[nH]c(-c3cccc(N4CCN(CC(=O)O)CC4)n3)nc2c1 [Example 10, 2-(4-(6-(5,7-Dimethoxy-4-oxo-3,4-dihydroquinazolin-2-yl)pyridin-2-yl)piperazin-1-yl)acetic acid]	Active			Not Active		225 °C (dec.)
